# Measured values as given in ChEMBL document CHEMBL1201862, “PubChem BioAssay data set” (2004).
# Activity calls are given as the source filed them.
# How the values were obtained:
# [1] = target: T1, Calpain-2 catalytic subunit (Sus scrofa, UniProt P43367); assay: m-calpain protease blockers, concentration series – biochemical, fluorogenic peptide substrate, dose response (AID 1420); type: functional
# T1 sequence (P43367 whole entry): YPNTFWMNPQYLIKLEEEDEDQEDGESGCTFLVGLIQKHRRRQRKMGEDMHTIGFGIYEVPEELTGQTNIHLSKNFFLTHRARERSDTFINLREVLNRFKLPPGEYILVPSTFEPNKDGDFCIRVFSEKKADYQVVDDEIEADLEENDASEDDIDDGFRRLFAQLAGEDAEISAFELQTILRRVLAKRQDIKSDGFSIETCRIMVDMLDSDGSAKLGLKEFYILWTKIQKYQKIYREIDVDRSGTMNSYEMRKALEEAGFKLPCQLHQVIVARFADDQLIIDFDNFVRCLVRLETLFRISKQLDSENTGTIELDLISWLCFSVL
# [2] = target: DNA dC->dU-editing enzyme APOBEC-3G (Homo sapiens, UniProt Q9HC16); assay: Dose Response confirmation of small molecule APOBEC3G DNA Deaminase Inhibitors via a fluorescence-based single-stranded DNA deaminase assay. [Related pubchem assays (depositor defined):AID493012, AID493028]; type: functional
# [3] = target: Large T antigen (Simian virus 40, UniProt P03070); type: functional, Betapolyomavirus macacae;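 note: Confirmatory-stage PubChem screen for compounds that inhibit SV40 T antigen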
# [4] = target: T2, Aminopeptidase N (Plasmodium falciparum FcB1/Columbia, UniProt O96935); assay: malaria alanyl aminopeptidase activity blockers – biochemical, fluorogenic H-Leu-NHMec substrate, 1536-well (AID 1445); parameters: species or system Plasmodium falciparum 3D7, 3D7
# T2 sequence (O96935 whole entry): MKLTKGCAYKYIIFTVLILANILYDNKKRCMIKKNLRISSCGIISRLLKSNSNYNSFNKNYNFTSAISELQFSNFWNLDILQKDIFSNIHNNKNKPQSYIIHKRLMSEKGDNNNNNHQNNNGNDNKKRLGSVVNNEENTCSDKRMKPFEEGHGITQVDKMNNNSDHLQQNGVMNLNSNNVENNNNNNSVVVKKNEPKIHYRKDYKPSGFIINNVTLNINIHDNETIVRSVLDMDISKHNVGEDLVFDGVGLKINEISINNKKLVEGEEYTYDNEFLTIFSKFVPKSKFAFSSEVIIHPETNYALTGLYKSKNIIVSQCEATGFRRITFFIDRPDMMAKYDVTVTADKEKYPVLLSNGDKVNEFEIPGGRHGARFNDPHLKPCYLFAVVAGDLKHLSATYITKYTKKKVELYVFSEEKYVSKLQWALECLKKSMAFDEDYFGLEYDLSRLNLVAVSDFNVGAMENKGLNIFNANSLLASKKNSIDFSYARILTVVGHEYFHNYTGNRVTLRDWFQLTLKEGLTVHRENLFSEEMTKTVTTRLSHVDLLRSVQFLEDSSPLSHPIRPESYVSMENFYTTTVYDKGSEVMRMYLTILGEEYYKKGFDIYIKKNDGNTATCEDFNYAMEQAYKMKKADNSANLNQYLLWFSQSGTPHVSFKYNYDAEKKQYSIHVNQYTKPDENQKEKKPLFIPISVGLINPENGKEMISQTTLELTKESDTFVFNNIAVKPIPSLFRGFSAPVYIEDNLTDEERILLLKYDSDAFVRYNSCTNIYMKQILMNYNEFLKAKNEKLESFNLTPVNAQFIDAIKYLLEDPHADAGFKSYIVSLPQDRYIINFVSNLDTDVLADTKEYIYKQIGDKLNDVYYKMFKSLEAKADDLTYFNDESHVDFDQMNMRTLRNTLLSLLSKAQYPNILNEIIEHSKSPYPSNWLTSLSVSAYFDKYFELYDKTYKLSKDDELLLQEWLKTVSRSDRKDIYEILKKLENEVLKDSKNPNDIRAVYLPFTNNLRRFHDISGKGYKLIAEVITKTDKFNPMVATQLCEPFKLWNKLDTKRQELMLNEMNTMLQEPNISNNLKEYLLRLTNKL
# [5] = target: Troponin, cardiac muscle (Homo sapiens, UniProt P19429+P45379+P63316); assay: Fluorescence-based biochemical high throughput dose response assay for activators of the calcium sensitivity of cardiac Regulated Thin Filaments (RTF). [Related pubchem assays (depositor defined):AID493008, AID493018, AID504382, AID504383]; type: protein-complex assay
# [6] = target: T3, Leucine aminopeptidase (Plasmodium falciparum 3D7, UniProt Q8IL11); assay: P. falciparum M17LAP inhibitors, primary screen, biochemical, fluorogenic H-Leu-NHMec substrate, 1536-well (AID 1619); type: functional
# T3 sequence (Q8IL11 whole entry): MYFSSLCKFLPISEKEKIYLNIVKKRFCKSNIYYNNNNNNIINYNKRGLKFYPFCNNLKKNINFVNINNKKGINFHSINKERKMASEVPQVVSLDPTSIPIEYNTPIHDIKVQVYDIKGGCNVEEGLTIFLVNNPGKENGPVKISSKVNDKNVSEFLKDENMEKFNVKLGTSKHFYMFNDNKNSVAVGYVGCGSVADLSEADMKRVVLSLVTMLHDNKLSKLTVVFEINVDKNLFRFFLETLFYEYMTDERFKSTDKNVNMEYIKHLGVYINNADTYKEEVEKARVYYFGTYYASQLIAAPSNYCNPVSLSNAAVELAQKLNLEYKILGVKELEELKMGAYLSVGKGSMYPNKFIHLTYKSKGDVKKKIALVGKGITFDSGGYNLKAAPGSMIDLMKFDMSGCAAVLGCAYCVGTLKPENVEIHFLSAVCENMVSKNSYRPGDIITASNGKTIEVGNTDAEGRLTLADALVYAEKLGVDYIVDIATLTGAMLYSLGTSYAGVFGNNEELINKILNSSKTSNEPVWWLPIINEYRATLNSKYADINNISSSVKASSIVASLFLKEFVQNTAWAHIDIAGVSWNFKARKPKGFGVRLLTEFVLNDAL
# [7] = target: Eukaryotic translation initiation factor 4E (Mus musculus, UniProt P63073); assay: blockers of eIF4G binding by eIF4E – biochemical, TR-FRET, dose response (AID 855); type: functional;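 note: potency for disrupting eIF4E binding to eIF4GI seen as loss of FRET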
# [8] = target: T4, Protein skinhead-1 (Caenorhabditis elegans, UniProt P34707); type: functional
# T4 sequence (P34707 whole entry): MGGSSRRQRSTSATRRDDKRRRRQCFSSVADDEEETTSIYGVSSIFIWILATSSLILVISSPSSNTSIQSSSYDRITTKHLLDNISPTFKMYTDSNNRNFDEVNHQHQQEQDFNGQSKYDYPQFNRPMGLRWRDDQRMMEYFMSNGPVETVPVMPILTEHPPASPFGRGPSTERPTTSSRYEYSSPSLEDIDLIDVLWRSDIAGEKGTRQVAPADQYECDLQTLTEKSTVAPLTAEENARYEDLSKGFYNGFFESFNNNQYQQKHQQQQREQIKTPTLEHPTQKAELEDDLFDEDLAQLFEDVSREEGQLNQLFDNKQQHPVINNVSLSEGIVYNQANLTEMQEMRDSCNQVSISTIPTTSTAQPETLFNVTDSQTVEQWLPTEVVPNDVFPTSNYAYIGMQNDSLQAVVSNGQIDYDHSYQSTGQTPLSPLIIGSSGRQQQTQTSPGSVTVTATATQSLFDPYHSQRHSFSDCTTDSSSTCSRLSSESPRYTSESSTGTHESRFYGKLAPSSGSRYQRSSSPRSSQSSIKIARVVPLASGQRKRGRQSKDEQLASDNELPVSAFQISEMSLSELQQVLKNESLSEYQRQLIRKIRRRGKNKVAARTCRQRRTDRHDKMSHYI
# [9] = target: T5, DNA repair protein RAD52 homolog (Homo sapiens, UniProt P43351); type: functional, biochemical
# T5 sequence (P43351 whole entry): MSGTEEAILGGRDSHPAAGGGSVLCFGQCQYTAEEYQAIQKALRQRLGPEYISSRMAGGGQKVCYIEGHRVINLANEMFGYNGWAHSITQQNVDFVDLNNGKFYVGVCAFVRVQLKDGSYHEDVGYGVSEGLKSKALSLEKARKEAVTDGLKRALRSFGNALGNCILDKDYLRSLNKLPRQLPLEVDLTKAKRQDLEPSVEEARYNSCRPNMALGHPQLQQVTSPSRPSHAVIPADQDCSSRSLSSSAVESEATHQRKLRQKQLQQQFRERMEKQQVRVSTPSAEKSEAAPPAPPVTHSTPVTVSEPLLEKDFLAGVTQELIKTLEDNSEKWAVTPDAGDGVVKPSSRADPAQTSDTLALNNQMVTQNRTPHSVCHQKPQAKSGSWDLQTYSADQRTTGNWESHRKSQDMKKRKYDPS
# [10] = target: Glyceraldehyde-3-phosphate dehydrogenase (Homo sapiens, UniProt P04406)
# [11] = target: Cytochrome P450 2C9 (Homo sapiens, UniProt P11712)
# [12] = target: T6, Cytochrome P450 1A2 (Homo sapiens, UniProt P05177);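 note: PubChem cytochrome P450 panel assay, CYP1A2 panel member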
# T6 sequence (P05177 whole entry): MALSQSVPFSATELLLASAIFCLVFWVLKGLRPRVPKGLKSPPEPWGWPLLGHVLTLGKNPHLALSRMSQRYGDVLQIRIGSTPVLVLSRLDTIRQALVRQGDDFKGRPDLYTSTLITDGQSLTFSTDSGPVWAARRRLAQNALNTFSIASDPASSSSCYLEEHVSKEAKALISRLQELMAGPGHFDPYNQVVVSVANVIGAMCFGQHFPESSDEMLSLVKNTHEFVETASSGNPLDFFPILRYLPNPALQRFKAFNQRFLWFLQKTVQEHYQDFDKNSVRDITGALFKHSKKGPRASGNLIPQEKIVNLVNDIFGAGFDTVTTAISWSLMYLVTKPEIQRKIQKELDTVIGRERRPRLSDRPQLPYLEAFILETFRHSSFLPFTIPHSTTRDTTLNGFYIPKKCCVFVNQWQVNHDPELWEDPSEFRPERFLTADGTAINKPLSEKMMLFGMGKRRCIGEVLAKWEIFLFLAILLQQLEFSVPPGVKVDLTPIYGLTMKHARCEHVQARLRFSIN
# [13] = target: T7, Microphthalmia-associated transcription factor (Homo sapiens, UniProt O75030); assay: reducers of TRPM1 reporter luminescence, concentration series – cell-based, SK-MEL-5, cherry-picked, set 3, MITF inhibitor project, dose response (AID 493073); type: functional;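 note: SK-MEL-5 melanoma cells with luciferase driven by the MITF target TRPM1 promoter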
# T7 sequence (O75030 whole entry): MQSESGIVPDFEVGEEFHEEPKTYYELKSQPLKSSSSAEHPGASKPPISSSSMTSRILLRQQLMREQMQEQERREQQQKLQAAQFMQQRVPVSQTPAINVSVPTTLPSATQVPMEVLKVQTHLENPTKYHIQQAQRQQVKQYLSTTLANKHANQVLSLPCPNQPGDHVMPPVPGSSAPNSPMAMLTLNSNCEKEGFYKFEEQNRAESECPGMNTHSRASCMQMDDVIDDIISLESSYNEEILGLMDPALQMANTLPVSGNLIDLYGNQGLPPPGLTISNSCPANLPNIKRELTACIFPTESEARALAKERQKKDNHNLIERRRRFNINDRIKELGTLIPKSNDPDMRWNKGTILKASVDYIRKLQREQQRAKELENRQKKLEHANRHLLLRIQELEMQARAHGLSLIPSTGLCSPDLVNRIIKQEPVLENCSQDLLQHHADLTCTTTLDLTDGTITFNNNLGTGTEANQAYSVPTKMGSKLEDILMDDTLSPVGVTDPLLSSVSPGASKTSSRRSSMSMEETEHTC
# Sequence of Eukaryotic translation initiation factor 4E (P63073 whole entry): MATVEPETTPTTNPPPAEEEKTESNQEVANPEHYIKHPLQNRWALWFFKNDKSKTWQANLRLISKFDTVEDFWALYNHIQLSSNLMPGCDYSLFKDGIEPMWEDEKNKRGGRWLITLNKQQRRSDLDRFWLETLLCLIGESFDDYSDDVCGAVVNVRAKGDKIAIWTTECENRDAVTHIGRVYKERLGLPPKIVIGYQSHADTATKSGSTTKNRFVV
# Sequence of DNA dC->dU-editing enzyme APOBEC-3G (Q9HC16 whole entry): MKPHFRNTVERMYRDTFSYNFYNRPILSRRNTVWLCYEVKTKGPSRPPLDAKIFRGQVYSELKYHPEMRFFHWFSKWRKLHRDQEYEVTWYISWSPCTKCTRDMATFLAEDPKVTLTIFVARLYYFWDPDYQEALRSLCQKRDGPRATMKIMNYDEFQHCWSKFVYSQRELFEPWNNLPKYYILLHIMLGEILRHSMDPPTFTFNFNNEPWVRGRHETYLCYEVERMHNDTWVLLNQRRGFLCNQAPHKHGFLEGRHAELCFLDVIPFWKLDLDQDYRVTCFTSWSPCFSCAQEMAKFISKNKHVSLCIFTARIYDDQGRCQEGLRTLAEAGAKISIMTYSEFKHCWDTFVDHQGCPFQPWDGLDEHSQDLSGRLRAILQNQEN
# Sequence of Cytochrome P450 2C9 (P11712 whole entry): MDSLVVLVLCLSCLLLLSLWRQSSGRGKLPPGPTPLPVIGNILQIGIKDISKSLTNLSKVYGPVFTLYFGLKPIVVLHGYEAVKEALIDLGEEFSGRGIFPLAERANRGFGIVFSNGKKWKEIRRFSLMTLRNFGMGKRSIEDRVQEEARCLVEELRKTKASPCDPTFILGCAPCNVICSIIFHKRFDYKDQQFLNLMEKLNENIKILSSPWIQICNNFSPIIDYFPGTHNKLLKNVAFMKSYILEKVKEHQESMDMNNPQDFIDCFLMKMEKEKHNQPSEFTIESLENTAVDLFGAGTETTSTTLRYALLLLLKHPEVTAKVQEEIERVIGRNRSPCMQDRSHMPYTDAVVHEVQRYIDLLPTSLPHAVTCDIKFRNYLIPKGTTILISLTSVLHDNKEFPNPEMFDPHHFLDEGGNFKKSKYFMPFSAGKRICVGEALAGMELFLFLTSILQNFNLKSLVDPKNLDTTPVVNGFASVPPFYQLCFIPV
# Sequence of Large T antigen (P03070 whole entry): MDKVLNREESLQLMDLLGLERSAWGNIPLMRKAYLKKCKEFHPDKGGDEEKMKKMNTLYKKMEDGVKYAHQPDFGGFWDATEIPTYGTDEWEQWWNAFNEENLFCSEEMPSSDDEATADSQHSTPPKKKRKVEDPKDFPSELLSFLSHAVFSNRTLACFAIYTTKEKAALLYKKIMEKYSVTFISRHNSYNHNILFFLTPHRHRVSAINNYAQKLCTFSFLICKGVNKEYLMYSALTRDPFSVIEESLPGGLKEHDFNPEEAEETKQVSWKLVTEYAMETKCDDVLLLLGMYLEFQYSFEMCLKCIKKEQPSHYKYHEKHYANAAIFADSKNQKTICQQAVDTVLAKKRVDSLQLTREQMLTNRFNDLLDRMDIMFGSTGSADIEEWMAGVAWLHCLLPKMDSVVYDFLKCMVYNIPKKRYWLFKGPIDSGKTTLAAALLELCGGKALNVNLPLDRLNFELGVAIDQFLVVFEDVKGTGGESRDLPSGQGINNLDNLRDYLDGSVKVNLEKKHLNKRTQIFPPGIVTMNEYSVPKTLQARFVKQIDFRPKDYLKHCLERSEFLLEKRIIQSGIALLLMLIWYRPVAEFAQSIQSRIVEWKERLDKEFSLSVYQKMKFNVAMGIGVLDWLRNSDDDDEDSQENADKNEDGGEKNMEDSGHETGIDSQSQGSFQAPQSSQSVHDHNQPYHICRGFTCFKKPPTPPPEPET
# Sequence of Glyceraldehyde-3-phosphate dehydrogenase (P04406 whole entry): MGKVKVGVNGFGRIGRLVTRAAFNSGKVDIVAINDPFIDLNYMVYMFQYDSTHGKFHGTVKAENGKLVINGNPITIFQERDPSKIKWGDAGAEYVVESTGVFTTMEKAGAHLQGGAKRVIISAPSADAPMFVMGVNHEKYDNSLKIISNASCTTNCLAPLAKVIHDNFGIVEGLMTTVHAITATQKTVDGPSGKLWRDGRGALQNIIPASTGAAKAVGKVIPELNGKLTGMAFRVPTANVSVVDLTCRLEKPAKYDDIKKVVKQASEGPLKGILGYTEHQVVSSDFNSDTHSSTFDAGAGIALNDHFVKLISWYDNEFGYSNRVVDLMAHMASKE
compound,measurement,setting,value
O=C(/C=C/c1ccc([N+](=O)[O-])cc1)NCCSc1ccccc1,IC50,[1],15.9 µM (not active)
Cc1ccc(C2(C)NC(=O)N(CC(=O)Nc3nc(-c4ccccn4)cs3)C2=O)cc1 (stereo not given),IC50,[2],25.6 µM (active)
same,IC50,[3],> 100 µM (active)
C=CCn1c(=N)c(C(=O)NCCCOC)cc2c(=O)n3cccc(C)c3nc21,IC50,[4],47.6 µM (active)
S=C(Nc1cc(Cl)ccc1Oc1ccccc1)N1CCN(c2ccccn2)CC1,EC50,[5],> 71.4 µM (inactive)
Cc1ccc(C(=O)Nc2nc(=O)n(C(=O)c3ccccc3Cl)s2)cc1,IC50,[4],38.8 µM (active)
same,IC50,[6],13.8 µM (active)
CCOC(=O)c1ccc2c(c1)nc(SCC(=O)c1cc3ccccc3o1)n2CC,IC50,[7],> 64 µM (inactive)
same,IC50,[8],> 100 µM (inactive)
O=C1NN=C(CSc2nnc(S)s2)CS1,IC50,[2],9.78 µM (active)
CCc1nc(N=C(N)N)nc2ccccc12,IC50,[4],48.5 µM (active)
same,AC50,[9],20.2 µM (active)
CCCCOC(=O)c1ccc(S(N)(=O)=O)o1,IC50,[10],> 100 µM (not active)
Cc1cc(OCc2nnn[nH]2)c2c3c(c(=O)oc2c1)CCCC3,IC50,[4],68.9 µM (active)
COc1ccccc1NC(=O)c1ccc(NC(=O)c2cc3c(s2)CCC3)cc1,IC50,[7],> 64 µM (inactive)
COc1cccc(Cn2c(=O)c(-c3cccs3)nc3cnc(N4CCN(C)CC4)nc32)c1,AC50,[11],inconclusive
same,AC50,[12],5.01 µM (inconclusive)
COc1ccccc1/C=C/C=C1\Oc2c(ccc(O)c2CN2CCN(CCO)CC2)C1=O,EC50,[5],1.37 µM (active)
CN=C(S)N=Nc1c(O)[nH]c2ccccc12,IC50,[4],47.9 µM (active)
C/C(NCC1CCCO1)=C1/C(=O)NC(=O)N(c2ccccc2)C1=O (stereo not given),IC50,[7],> 64 µM (inactive)
CC(NC(=O)C12CC3CC(CC(C3)C1)C2)C(=O)NN=Cc1ccc([N+](=O)[O-])o1 (stereo not given),AC50,[13],7.79 µM (active)
COc1ccc(OC)c(N2C(=O)/C(=C/NCCN3CCNCC3)C(=O)NC2=S)c1,EC50,[5],> 71.5 µM (inactive)
Cc1ccc(S(=O)(=O)CC(O)CN2CCCC2=O)cc1 (stereo not given),AC50,[11],inconclusive
O=C(Nc1cccc2ccccc12)c1ccc(Br)o1,IC50,[7],> 64 µM (inactive)
Sc1nnc(-c2ccccn2)n1/N=C/c1ccccc1,IC50,[2],9.26 µM (active)
